Read-outs that look alike come from different tables or passages of the source. Blank lines part the entries; values can stand above or below the molecule they belong to.
Experiments:
[1] = literature; cited from earlier work
[2] = literature; cited from earlier work; remark: listed apart in the source
[3] = literature; cited from earlier work; remark: listed apart in the source
[4] = standard curve, well-characterized chelators; cited from earlier work
[5] = cited from earlier work; for r1: based on references
[6] = In vitro r1 and r2 proton relaxivity; format: physicochemical; conditions: 3.0 T; 50 μM designed agents, 100 μM Gd-DTPA
[7] = In vitro r1 and r2 proton relaxivity; format: physicochemical
Method: Determination of r1 and r2 Relaxivity Values, Relaxation times, T1 and T2, were determined at 1.5, 3, 9.4 Tesla using a Siemens whole-body MR system (1.5, 3T) or a Bruker MRI scanner (9.4T). T1 was determined using inversion recovery and T2 using a multi-echo Carr-Purcell-Meiboom-Gill (CPMG) sequence. The contrast agent samples (200 μl) with different concentrations were placed in eppendorf tubes. The tubes were placed on a tube rack, which was placed in MRI scanners for the measurement of relaxation times r1 and r2 were calculated based on r1(mM^−1 S^−1)=(1/T1s−1/T1c)/C and r2(mM^−1 S^−1)=(1/T2s−1/T2c)/C, where T1s and T2s are relaxation times with contrast agent and T1c and T2c are relaxation times without contrast agent. C is the concentration of contrast agent in mM (the measured Gd^3+ concentrations by ICP-MS). […]

CD-1 mice = experiment: Mouse MR imaging; format: in vivo; conditions: 3T or 9.4T
Method: (§1) Mouse MR Imaging. Care of experimental animals was in accordance with institutional guidelines. CD-1 mice (25-30 g, four mice were imaged) were anesthetized with an isoflurane gas mixture. The anesthetized animal was positioned and stabilized with soft-supporting material (e.g., foam) in the scanner in the coil cradle and was kept warm during the MRI scan. The mice were scanned prior to the administration of any contrast agent (pre-contrast). Approximately 50 μl of Gd-CA1.CD2 (~1.2 mM) or Gd-DTPA (~300 mM) were injected into the animal via the tail vein. MR images were collected at different times (indicated). For T1 weighted imaging at 3T, spin echo sequence with TE/TR=15 ms/500 ms was employed. Rectangular Field of View (FOV) at 100/40 mm, an acquisition matrix of 196^2 and 1.1 mm slice thickness without gap were used. Images were collected from both transverse and coronal sections. The in-plane resolution of images was less than 0.5 mm after they were reconstructed to the matrix of 196^2. For T2 weighted imaging at 9.4T, MR images were recorded using a multi-echo Carr-Purcell-Meiboom-Gill (CPMG) sequence. The data were collected and processed by Dicomworks software. The MR signal intensity in several organs was ascertained by the average intensity in ROIs or points within the organs. Signal intensity for each organ was normalized to that of the leg muscle.
as §1, with “Care” for “Mouse MR Imaging. Care”, “(e.g.” for “(e.g.,”

[8] = used for the Gd^3+ buffer system; read-out: Gd^3+-binding affinity; cited from earlier work
[9] = Water coordination number by terbium life time luminescence; format: physicochemical
Method: Measurement of Water Coordination Number by Terbium Life Time Luminescence. The number of water ligands coordinated to Gd^3+-CA1.CD2 complex was determined by measuring Tb^3+ luminescence decay in H2O or D2O. Tb^3+ excited state lifetime was measured using a fluorescence spectrophotometer (Photon Technology International, Inc.) with a 10 mm path length quartz cell at 22° ° C. Following excitation at 265 nm with a XenoFlash (Photon Technology International, Inc.), Tb^3+ emission was monitored at 545 nm in a time series experiment in both H2O and D2O systems. Luminescence decay lifetime was obtained by fitting the acquired data with a mono-exponential decay function. H2O in CA1.CD2 solution was replaced with D2O by lypholization and re-dissolved in D2O at least three times. A standard curve correlating the Δkobs with water number under our experimental conditions was established by using well-characterized chelators, such as EDTA (q=3), DTPA (q=1), NTA (q=5), and Aquo Tb^3+ (q=9) solution with R^2=0.997.^26,27 Water number coordinated to Tb^3+-CA1.CD2 complex was then obtained by fitting the acquired Δkobs value to the standard curve.
The numbers of water ligands coordinated to Gd^3+-CA1.CD2 and variants complex were determined by measuring Tb^3+ luminescence decay in H2O or D2O (Yang et al., 2008). Tb^3+ excited state lifetime was measured using a fluorescence spectrophotometer (Photon Technology International, Inc.) with a 10 mm path length quartz cell at 22° C. Following excitation at 265 nm with a XenoFlash (Photon Technology International, Inc.), Tb^3+ emission was monitored at 545 nm in a time series experiment in both H2O and D2O systems. Luminescence decay lifetime was obtained by fitting the acquired data with a mono-exponential decay function. H2O in CA1.CD2 solution was replaced with D2O by lypholization and re-dissolved in D2O at least three times. A standard curve correlating the Δkobs with water number under our experimental conditions was established by using well-characterized chelators, such as EDTA (q=3). DTPA (q=1), NTA (q=5), and Aquo Tb^3+ (q=9) solation with R^2=0.997.^26, 27 Water number coordinated to Tb^+-CA1.CD2 complex was then obtained by fitting the acquired Δkobs value to the standard curve.

[10] = Serum stability in human serum at 37° C., SDS-PAGE; format: in vitro ADME; conditions: 24 hours at 37° C., SDS Page
Method: Serum stability. […] The degradation of the protein (disappearance of 12 kDa protein band) was analyzed by SDS-PAGE and visualized by coomassie blue staining. In parallel, the degradation of the protein was also analyzed by immunoblot using antibodies OX54 or PabCD2. The identities of the 12 kDa bands as CA1.CD2 were always verified by immunobloting using antibody PabCD2.
[…] The degradation of the protein (disappearance of 12 kDa protein band) was analyzed by SDS-PAGE and visualized by coomassie blue staining for protein and idiol staining for PEG moiety. In parallel, the degradation of the protein was also analyzed by immunoblot using antibodies OX54 or PabCD2. The identities of CA1.CD2 and pegylated variants were verified by immunoblotting using antibody PabCD2.and idiol staining.

PC-3 = experiment: Uptake and internalization by confocal fluorescent microscope; format: cell-based
Method: (§2) DU-145, PC-3 and H441 cells (8×10^4) were seeded in 4-well chambers (BD) at 37° C. overnight. In the second day, fresh medium was changed. Contrast agents were incubated with cells at different time point at 37° C. Subsequently, the cells were washed with PBS for three times and fixed with 3% formaldehyde for 15 minutes. After cells were rinsed in PBS for three times, 0.2% Triton X-100 was added to permeablize cells for 10 minutes. The cells were washed and four drops of Image-IT Fx signal enhancer (Invitrogen, CA) was applied in each sample to block unspecific binding. After three time washes, CD2 antibody was used as primary antibody. Goat anti-mouse IgG conjugated with Alexa Fluor 488 was used as detection antibody (Invitrogen, CA). The fluorescence image was acquired using 488 nm and UV lasers.

DU-145 = experiment: as above; format: cell-based
Method: as §2

Molecule: O=C(O)CN(CCN(CC(=O)O)CC(=O)O)CCN(CC(=O)O)CC(=O)O [DTPA]
Log (KGd/KZn) [1]: 4.17
Log (KGd/KMg) [2]: 4.25
Log (KGd/KCa) [3]: 11.70
Metal binding constant (Log Ka) Ca^2+ [3]: 10.75
water number q of standard chelators [4]: 1
relaxivity ([5]; clinically used DTPA, field not stated): 5 mM⁻¹ s⁻¹

Molecule: O=C(O)CN(CCN(CC(=O)O)CC(=O)O)CC(=O)O [EDTA]
water number q of standard chelators [4]: 3

r1 ([7]; B0 1.5 T): 5.4 mM⁻¹ s⁻¹
r1 ([7]; B0 3 T): 4.2 mM⁻¹ s⁻¹
Molecule: O=C([O-])CN(CCN(CC(=O)[O-])CC(=O)O)CCN(CC(=O)[O-])CC(=O)O.[Gd+3] [Gd-DTPA, reference compound]
contrast enhancement in T1 weighted imaging of samples [6]: did not lead to significant enhancement
contrast enhancement at the same concentration as Gd-CA1.CD2 (CD-1 mice): failed to exhibit contrast enhancements

Molecule: O=C(O)CN(CC(=O)O)CC(=O)O [NTA, nitrilotriacetic acid]
water number q of standard chelators [4]: 5
Kd [8]: 2.6 pM

Molecule: Albumin
r1 ([5]; B0 0.25 T): 11.5 mM⁻¹ s⁻¹

Molecule: Gadomer-17
r1 ([5]; B0 1.5 T): 13 mM⁻¹ s⁻¹

Molecule: troponin C [reference compound]
hydration number (water number in the coordination shell) [9]: 1.8

B1: CA1.CD2-P40: CA1.CD2 PEGylated with PEG40 (conjugate)
chain: RDSGTVWGALGHGINLNIPNFQMTDDIDEVRWERGSTLVAEFKRKMKPFLKSGAFEILANGDLKIKNLTRDDSGTYNVTVYSTNGTRILNKALDLRILE
stability in human serum [10]: remains intact

B2: CA1.CD2-521-Bom: Bom/GRP sequence grafted into CA1.CD2 (protein)
chain: RDSGTVWGALGHGIELNIPNFQMTDDIDEVRWERGSTLVAEFKRKMKPFLKSGGSGGGNQWAVGHLMGGSGGGAFEIDANGDLDIKNLTRDDSGTYNVTVYSTNGTRILNKALDLRILE
uptake in GRPR positive PC-3 cells (PC-3): uptake and internalization
uptake in GRPR positive DU-145 cells (DU-145): uptake and internalization
